We go through 17 compounds from US20250236616A1, “IMMUNOMODULATING AZALIDES” (Zoetis Services LLC, priority 2021, published 2025).

SMILES strings stand for the structures.

Common to all, as to type: cell-based
For one test, the system named is IL-1β. The experiment in a line: Whole bovine blood assay, LPS-induced IL-1β (inhibition / overstimulation). The following applies: drug concentration giving overstimulation (OS) of LPS-induced IL-1β, top concentration 250 μM. As for the experimental part:
Whole Blood Assay-Fresh whole bovine blood samples were collected into heparinized vacutainer tubes. Assay plates were prepared with 25 μL of drug diluted in PBS at varying concentration in 96 round bottom wells, then 225 μL of blood was added and plates incubated at 37° C. for 4 hours. Cells were stimulated with LPS (or PBS for controls) by adding 25 μL to the plates at a final concentration of 1 μg/mL and incubated at 37° C. for 18 hours. To collect plasma, plates were centrifuged at 2,000×g for 10 minutes and 100 μL of supernatant was transferred to a 96 well polypropylene plate that was sealed and stored at −80° C. Samples were assayed for cytokines using the Meso Scale Discovery (MSD) platform (described below). This same MSD platform was used to assess cytokines in the plasma collected directly from drug treated animals.
Cytokine Detection—An MSD U-Plex cytokine assay was developed following the MSD U-Plex protocol guide and included biotinylated capture antibodies against: bovine Interleukin (IL)-1β (Biorad), bovine IL-6 (R&D Systems) and bovine tumor necrosis factor (TNF)-α (R&D Systems). The anti-IL-1β antibody was biotinylated using EZ-Link Sulfo-NHS-Biotin (Thermo Scientific) at a challenge ratio of 1:20 according to manufacturer instructions. Assay calibrators (Kingfisher) were diluted to a concentration of […] in control lithium heparin plasma, followed by 4-fold serial dilutions into plasma. The detection antibodies were sulfo-tagged following the MSD quick guide conjugation protocol using a challenge ratio of 1:20. Antibodies were used at the following concentrations: anti-IL-1β at 1 μg/mL, anti-IL-6 at 1 μg/mL and anti-TNF-α at 0.5 μg/mL. Cytokines were quantified according to manufacturer's instructions using a chemiluminescent readout. In brief, 0.5 mL of all biotinylated antibodies were diluted to 10 μg/mL with Diluent 100 and paired to their respective linkers by adding 750 μL of supplied Linker solution and incubated for 30 minutes followed by addition of Stop solution for another 30 minutes. The linked antibodies were then diluted 10-fold into Stop solution. Plates were coated by adding 50 μL of antibody solutions per well and incubated covered and shaking for 1 hour at room temperature. Plates were washed three times with PBS/Tween20 prior to samples or standards being added at 30 μL per well and incubated as above. Plates were washed three times before detection antibodies were added along with 2% goat and rabbit serum to block and incubated same as above. Plates were washed a further three times before addition of 150 μL 2X Read buffer and read immediately on the SI6000 instrument (MSD). For soluble protein levels, a BCA protein kit (Thermofisher) was used. The cytokine concentrations (pg/mL) were normalized to the total protein levels for each sample. [Bassel et. al., BMC Veterinary Research (2020) 16:168]
Therefore, a fresh whole bovine blood assay was developed with LPS as a stimulant (TLR-4 agonist) and with IL-1β and TNF-α as the read-out. Compounds of the invention were evaluated against a positive control for their ability to inhibit LPS-induced IL-1β and TNF-α as an overall evaluation of relative potency and modulation of target pathways.
For M9, the top dose of 500 μM was not high enough to determine an overstimulation of IL-1 B which was recorded as not applicable (n/a). The enhanced response indicates increased concentration of IL-1β cytokine at the drug concentration indicated. This is generally observed when compounds are out of range (high concentration) and stimulate a cellular toxicity signal. Further data supporting this hypothesis includes murine studies using a P. multocida infection in mice.
TNFα is a cell signaling protein, cytokine, that plays a key role in both acute and chronic inflammation. […]

The test system of the next test is IL-6. The experiment in a line: Whole bovine blood assay, LPS-induced IL-6. The following applies: fresh whole bovine blood, LPS stimulant; top drug concentration 250 μM.
A further test deals with TNF-α. Briefly: Whole bovine blood assay, LPS-induced TNF-α. The following applies: fresh whole bovine blood, LPS stimulant; top drug concentration 250 μM. In short, it runs like this: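 Fresh heparinized bovine whole blood was preincubated with compound 4 h at 37 °C, then stimulated with LPS (final 1 μg/mL) for 18 h at 37 °C. Plasma TNF-α was quantified by MSD U-Plex chemiluminescent immunoassay, normalized to total protein (BCA), and IC50 taken for LPS-induced TNF-α inhibition.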

By minimal effective concentration is commonly meant the lowest level tested that produced the effect sought. Lower therefore signals greater potency. What is called IC50 is the concentration that inhibits the measured activity by half. Compound `CC[C@H]1OC(=O)[C@H](C)[C@@H](O)[C@H](C)[C@@H](O[C@@H]2O[C@H](C)C[C@H](N(C)S(=O)(=O)C3CC3)[C@H]2Oc2ccccc2)[C@](C)(O)C[C@@H](C)CN[C@H](C)[C@@H](O)[C@]1(C)O` [Example A-32] yielded a minimal effective concentration with IL-1β of 100 µM. Further, the half-inhibitory concentration (IC50) with IL-6 came out at 167 µM.
On the same counts, the results for `CC[C@H]1OC(=O)[C@H](C)[C@@H](O[C@H]2C[C@@](C)(OC)[C@](O)(CNCCc3ccncc3)[C@H](C)O2)[C@H](C)[C@@H](O[C@@H]2O[C@H](C)C[C@H](N(C)S(=O)(=O)c3ccc(Cl)cc3)[C@H]2O)[C@](C)(O)C[C@@H](C)CN[C@H](C)[C@@H](O)[C@]1(C)O` [Example B-29] are 12 µM and 54 µM.
In turn, `CC[C@H]1OC(=O)[C@H](C)[C@@H](O[C@H]2C[C@@](C)(OC)[C@](O)(CNCCC3CCOCC3)[C@H](C)O2)[C@H](C)[C@@H](O[C@@H]2O[C@H](C)C[C@H](N(C)S(=O)(=O)c3ccc(Cl)cc3)[C@H]2O)[C@](C)(O)C[C@@H](C)CN[C@H](C)[C@@H](O)[C@]1(C)O` [Example B-34] yielded a minimal effective concentration in the test with IL-1β of 6 µM. The same compound had an IC50 with IL-6 of 20 µM.
`CC[C@H]1OC(=O)[C@H](C)[C@@H](O[C@H]2C[C@@](C)(OC)[C@](O)(CNCCCN3CCCCC3)[C@H](C)O2)[C@H](C)[C@@H](O[C@@H]2O[C@H](C)C[C@H](N(C)S(=O)(=O)Nc3ccc(C(F)(F)F)cc3)[C@H]2O)[C@](C)(O)C[C@@H](C)CN[C@H](C)[C@@H](O)[C@]1(C)O` [Example B-75] displayed a concentration for half-maximal inhibition (IC50) in the test on TNF-α of 31 µM. Besides, the minimal effective concentration in the test on IL-1β is given as >250 µM.
Turning to `CC[C@H]1OC(=O)[C@H](C)[C@@H](O[C@H]2C[C@@](C)(OC)[C@](O)(CNCCNC(C)=O)[C@H](C)O2)[C@H](C)[C@@H](O[C@@H]2O[C@H](C)C[C@H](N(C)S(=O)(=O)Nc3ccc(C(F)(F)F)cc3)[C@H]2O)[C@](C)(O)C[C@@H](C)CN[C@H](C)[C@@H](O)[C@]1(C)O` [Example B-81], the midpoint of inhibition with TNF-α, the IC50, lay at 22 µM. For the same compound, the minimal effective concentration in the test with IL-1β is given as 15 µM.
The corresponding values for `CC[C@H]1OC(=O)[C@H](C)[C@@H](O[C@H]2C[C@@](C)(OC)[C@](O)(CNCCCN3CCCC3=O)[C@H](C)O2)[C@H](C)[C@@H](O[C@@H]2O[C@H](C)C[C@H](N(C)S(=O)(=O)Nc3ccc(C(F)(F)F)cc3)[C@H]2O)[C@](C)(O)C[C@@H](C)CN[C@H](C)[C@@H](O)[C@]1(C)O` [Example B-87] are 17 µM and 9 µM.
Compound `CCCNC[C@]1(O)[C@H](C)O[C@@H](O[C@H]2[C@H](C)[C@@H](O[C@@H]3O[C@H](C)C[C@H](N(C)S(=O)(=O)c4cnc(Cl)c(Br)c4)[C@H]3Oc3ccc(OC)cc3)[C@](C)(O)C[C@@H](C)CN[C@H](C)[C@@H](O)[C@](C)(O)[C@@H](CC)OC(=O)[C@@H]2C)C[C@@]1(C)OC` [Example B-117] showed a minimal effective concentration in the test with IL-1β of 16 µM. This compound registered a half-maximal inhibitory concentration (IC50) in the test on IL-6 of 142 µM.
Compound `CCCNC[C@]1(O)[C@H](C)O[C@@H](O[C@H]2[C@H](C)[C@@H](O[C@@H]3O[C@H](C)C[C@H](N(C)S(=O)(=O)c4cnn(-c5ccc(C(F)(F)F)cn5)c4)[C@H]3Oc3ccc(OC)cc3)[C@](C)(O)C[C@@H](C)CN[C@H](C)[C@@H](O)[C@](C)(O)[C@@H](CC)OC(=O)[C@@H]2C)C[C@@]1(C)OC` [Example B-123] had a minimal effective concentration with IL-1β of 6 µM. In the test with IL-6, this compound came in with an IC50 of 4 µM.
On the same counts, the results for `CCCNC[C@]1(O)[C@H](C)O[C@@H](O[C@H]2[C@H](C)[C@@H](O[C@@H]3O[C@H](C)C[C@H](N(C)S(=O)(=O)c4cccnc4Cl)[C@H]3Oc3ccc(OC)cc3)[C@](C)(O)C[C@@H](C)CN[C@H](C)[C@@H](O)[C@](C)(O)[C@@H](CC)OC(=O)[C@@H]2C)C[C@@]1(C)OC` [Example B-124] are 6 µM and 4 µM.
Turning to `CC[C@H]1OC(=O)[C@H](C)[C@@H](O[C@H]2C[C@@](C)(OC)[C@](O)(CNCCS(C)(=O)=O)[C@H](C)O2)[C@H](C)[C@@H](O[C@@H]2O[C@H](C)C[C@H](N(C)S(=O)(=O)c3ccc(C(F)(F)F)cc3)[C@H]2O)[C@](C)(O)C[C@@H](C)CN[C@H](C)[C@@H](O)[C@]1(C)O` [Example B-126], the midpoint of inhibition in the test on TNF-α, the IC50, lay at 68 µM. In the test on IL-1β, this compound returned a minimal effective concentration of 11 µM.
`CC[C@H]1OC(=O)[C@H](C)[C@@H](O[C@H]2C[C@@](C)(OC)[C@](O)(CNCCOC(F)(F)F)[C@H](C)O2)[C@H](C)[C@@H](O[C@@H]2O[C@H](C)C[C@H](N(C)S(=O)(=O)Nc3ccc(C(F)(F)F)cc3)[C@H]2O)[C@](C)(O)C[C@@H](C)CN[C@H](C)[C@@H](O)[C@]1(C)O` [Example B-129]: it took 10 µM to reach half-maximal inhibition with TNF-α (IC50). This compound also returned a minimal effective concentration with IL-1β of 2 µM.
Compound `CCCNC[C@]1(O)[C@H](C)O[C@@H](O[C@H]2[C@H](C)[C@@H](O[C@@H]3O[C@H](C)C[C@H](N(C)S(=O)(=O)c4ccccc4)[C@H]3Oc3cccc(CO)c3)[C@](C)(O)C[C@@H](C)CN[C@H](C)[C@@H](O)[C@](C)(O)[C@@H](CC)OC(=O)[C@@H]2C)C[C@@]1(C)OC` [Example B-133] showed a minimal effective concentration in the test on IL-1β of 16 µM. Moreover, in the test on IL-6, the IC50 was found to be 24 µM.
In turn, `CCCNC[C@]1(O)[C@H](C)O[C@@H](O[C@H]2[C@H](C)[C@@H](O[C@@H]3O[C@H](C)C[C@H](N(C)S(N)(=O)=O)[C@H]3O)[C@](C)(O)C[C@@H](C)CN(CCC)[C@H](C)[C@@H](O)[C@](C)(O)[C@@H](CC)OC(=O)[C@@H]2C)C[C@@]1(C)OC` [Example B-158] had an IC50 with TNF-α of 102 µM. Besides, in the test with IL-1β, the minimal effective concentration was >250 µM.
In the test on IL-1β, `CC[C@H]1OC(=O)[C@H](C)[C@@H](O[C@H]2C[C@@](C)(OC)[C@](O)(CN3CCC3)[C@H](C)O2)[C@H](C)[C@@H](O[C@@H]2O[C@H](C)C[C@H](N(C)S(=O)(=O)c3ccc(Cl)cc3)[C@H]2O)[C@](C)(O)C[C@@H](C)CN[C@H](C)[C@@H](O)[C@]1(C)O` [Example C-2] had a minimal effective concentration of 6 µM. The compound further gave an IC50 in the test on IL-6 of 13 µM.
On the same counts, the results for `CC[C@H]1OC(=O)[C@H](C)[C@@H](O[C@H]2C[C@@](C)(OC)[C@](O)(Cn3ccnc3)[C@H](C)O2)[C@H](C)[C@@H](O[C@@H]2O[C@H](C)C[C@H](N(C)S(=O)(=O)c3ccc(Cl)cc3)[C@H]2O)[C@](C)(O)C[C@@H](C)CN[C@H](C)[C@@H](O)[C@]1(C)O` [Example C-5] are 16 µM and 31 µM.
`CCCN1C[C@H](C)C[C@@](C)(O)[C@H](O[C@@H]2O[C@H](C)C[C@H](N(C)S(N)(=O)=O)[C@H]2O)[C@@H](C)[C@H](O[C@H]2C[C@@](C)(OC)[C@](O)(CN3CCCCC3)[C@H](C)O2)[C@@H](C)C(=O)O[C@H](CC)[C@@](C)(O)[C@H](O)[C@H]1C` [Example C-17]: in the test on TNF-α, the half-inhibitory concentration (IC50) is 23 µM. The same compound gave a minimal effective concentration in the test on IL-1β of 250 µM.
On the same counts, the results for `CC[C@H]1OC(=O)[C@H](C)[C@@H](O[C@H]2C[C@@](C)(OC)[C@](O)(CN3CCCCC3)[C@H](C)O2)[C@H](C)[C@@H](O[C@@H]2O[C@H](C)C[C@H](N(Cc3cccnc3)S(=O)(=O)Nc3ccc(C(F)(F)F)cc3)[C@H]2O)[C@](C)(O)C[C@@H](C)CN[C@H](C)[C@@H](O)[C@]1(C)O` [Example C-39] are 15 µM and 6 µM.
